Converted amounts (≈) assume the structure as drawn.
Assays:
[1] = tested on: cell line A2780 derived from human ovarian cancer; assay: Suppression of cancer cell proliferation (MTT method); format: cell-based
Method: Cells were cultured in an RPMI culture medium supplemented with 10 % calf fetus serum in the presence of 5 % CO2 at 37 °C. The cells were inoculated and cultured in a 96-well plate for one day, followed by addition of one of the pharmaceutical compounds. The cells were treated with the compounds for 3 days, and the effects were assessed by the proliferation-suppressed MTT method. The activities of the compounds on the suppression of the proliferation of Cancer cells are shown below. The cancer cells were of a cell line A2780 derived from human ovarian cancer.

graft vs host reaction = assay: Graft vs host reaction (GVH), spleen weight method; format: in vivo, mouse; conditions: for Spleen weight/body weight: spleen weighed 7 days after transplantation, BDF mouse; for Index: relative to Untreated = 1.00
Method: The spleen weight method by Fords, et al. [W.L. Ford et al., Handbook of Experimental Immunology 30, D.M. Weir, ed., Blackwell Scientific Publications, 1978, pp. 1] was followed. Spleen cells of 5×10^6, separated from a C57BL/6 mouse (8 weeks of age, male) as a donor, were transplanted peritoneally in a BDF mouse (7 weeks of age, male) as a recipient. Simultaneously, NK374186, a control agent or a solvent control (0.25 % gum arabic) was injected subcutaneously in the dorsal skin of the BDF mouse. The NK374186 and the control agent were preliminarily dissolved in 0.25 % gum arabic. Furthermore, on day 1 and day 2, the same administration was conducted, and 7 days after the transplantation, the spleen was weighed.

Human peripheral T cells = assay: Blastoid transformation via OKT-3 (3H-thymidine incorporation); format: cell-based; conditions: 2 ng/ml OKT-3 antibody, 72-hr cultivation
Method: For cultivation, RPMI 1640 medium supplemented with 10 % calf fetus serum, 25 mM HEPS buffer, 100 µg/ml streptomycin […] and 100 units/ml penicillin G in a 96-well flat-bottom microplate (coaster) was used. As a mitogen, 2 ng/ml OKT-3 antibody was used.
Human peripheral T cells Were collected from blood drawn with heparin by the density-gradient centrifugation method. 200,000 cells and test compounds at individual concentrations were added to each well to a total volume of 0.2 ml, for 72-hr cultivation. Eight hours before termination of the cultivation, 37 kBq ^3H - thymidine was added to determine the incorporation thereof into the cells. The effects were evaluated on the basis of the ratio of the incorporated ^3H - thymidine in the groups with addition of the test compounds to the incorporated ^3H - thymidine in the control group (Japanese Immunology Association, Methods for Experiment Immunology, pp. 2267 - 2276).

## CCCCCCCCCCCCCC1OC(=O)C(COC(C)=O)NC(=O)C(C(C)OP(=O)(O)O)NC(=O)C(C(C)C)NC(=O)C(C)C(O)C1C (stereo not shown) [NK374186P]
[1]; Homo sapiens, 72 h, A2780 cells, treated for 3 days, MTT method
  IC50: 33 µg/mL (≈ 44.8 µM)
[1]; result in words, summary of Table 1
  activities on the suppression of the proliferation of the cancer cells: have activities on the suppression of the proliferation of the cancer cells
Graft vs host reaction; Dose 0.5 mg/kg subcutaneously on day 0, 1 and 2
  Spleen weight/body weight: 10.01 X10^-3
Graft vs host reaction; Dose 0.5 mg/kg
  Index: 2.07
Graft vs host reaction; Dose 5.0 mg/kg subcutaneously on day 0, 1 and 2
  Spleen weight/body weight: 11.45 X10^-3
Graft vs host reaction; Dose 5.0 mg/kg
  Index: 2.37
Graft vs host reaction; Dose 50.0 mg/kg subcutaneously on day 0, 1 and 2
  Spleen weight/body weight: 12.00 X10^-3
Graft vs host reaction; Dose 50.0 mg/kg
  Index: 2.48
Graft vs host reaction; result in words, summary of Table 3, ratio of spleen weight to body weight increases depending on the dose
  effect on GVH: significant GVH suppression
Human peripheral T cells; Concentration 0.03 (unit not given)
  ratio of the incorporated 3H-thymidine in the groups with addition of the test compounds to the control group: 99.6
Human peripheral T cells; Concentration 0.1 (unit not given)
  ratio of the incorporated 3H-thymidine in the groups with addition of the test compounds to the control group: 100.6
Human peripheral T cells; Concentration 0.3 (unit not given)
  ratio of the incorporated 3H-thymidine in the groups with addition of the test compounds to the control group: 102.6
Human peripheral T cells; Concentration 1.0 (unit not given)
  ratio of the incorporated 3H-thymidine in the groups with addition of the test compounds to the control group: 119.7
Human peripheral T cells; Concentration 3.0 (unit not given)
  ratio of the incorporated 3H-thymidine in the groups with addition of the test compounds to the control group: 131.4
Human peripheral T cells; Concentration 10.0 (unit not given)
  ratio of the incorporated 3H-thymidine in the groups with addition of the test compounds to the control group: 97.7
Human peripheral T cells; Concentration 30.0 (unit not given)
  ratio of the incorporated 3H-thymidine in the groups with addition of the test compounds to the control group: 69.3
